Source: ChEMBL document CHEMBL3352663, “Inhibition of group IVA cytosolic phospholipase A2 by thiazolyl ketones in vitro, ex vivo, and in vivo” (J Med Chem, 2014)

System: GVIA iPLA2 (Homo sapiens)
Assay: Inhibition of human recombinant GVIA iPLA2 using 400 uM Triton X-100/98.3 uM PAPC/1.7 uM 14C-labeled PAPC substrate mixedmicelles at 1 uM

SMILES	inhibition [%]
O=C(COc1ccccc1)c1nccs1	13
O=C(COc1ccc(F)cc1)c1nccs1	5
CCCCCCCCCCCCOCC(=O)c1nc(CC(=O)OCC)cs1	91
CCCCCCCCc1ccc(OCC(=O)c2nc(CC(=O)OCC)cs2)cc1	76
CCCCCCCCc1ccc(OCC(=O)c2nc3ccccc3s2)cc1	77
O=C(COc1ccc(-c2ccccc2)cc1)c1nccs1	23
CCCCCCCCCCCCOCC(=O)c1nc(C(=O)OCC)cs1	92
CCCCCCCCc1ccc(OCC(=O)c2nccs2)cc1	67
